Like-named read-outs stand apart in the source and are kept apart here.
How the values were obtained:
[1] = cited from earlier work
P450 3A4 [2] = target: T1, P450 3A4 (Homo sapiens, UniProt P08684); settings: in vivo; cited from earlier work
Target sequence in this assay (P08684 whole entry): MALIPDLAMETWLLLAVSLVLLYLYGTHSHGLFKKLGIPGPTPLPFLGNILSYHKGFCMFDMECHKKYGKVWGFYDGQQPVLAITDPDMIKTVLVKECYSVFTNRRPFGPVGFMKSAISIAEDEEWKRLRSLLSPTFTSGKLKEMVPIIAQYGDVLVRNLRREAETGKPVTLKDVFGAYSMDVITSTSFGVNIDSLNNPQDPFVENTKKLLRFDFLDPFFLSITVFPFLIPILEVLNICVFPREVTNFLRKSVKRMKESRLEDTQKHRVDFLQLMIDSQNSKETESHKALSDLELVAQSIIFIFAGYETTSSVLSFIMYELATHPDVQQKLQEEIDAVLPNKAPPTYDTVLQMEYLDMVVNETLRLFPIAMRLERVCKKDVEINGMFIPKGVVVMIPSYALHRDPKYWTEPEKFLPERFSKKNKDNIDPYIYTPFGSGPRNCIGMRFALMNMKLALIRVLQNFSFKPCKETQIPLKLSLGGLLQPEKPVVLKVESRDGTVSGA

P450 3A4 [3] = target: T1, P450 3A4; settings: other potent inactivators of P450 3A4, literature; cited from earlier work
Target sequence in this assay (P08684 whole entry): as above

P450 3A4 [4] = target: T1, P450 3A4; assay: BG-mediated inactivation of P450 3A4 in a reconstituted system, testosterone 6β-hydroxylation activity; settings: reconstituted system
Target sequence in this assay (P08684 with tags, fused parts or gaps): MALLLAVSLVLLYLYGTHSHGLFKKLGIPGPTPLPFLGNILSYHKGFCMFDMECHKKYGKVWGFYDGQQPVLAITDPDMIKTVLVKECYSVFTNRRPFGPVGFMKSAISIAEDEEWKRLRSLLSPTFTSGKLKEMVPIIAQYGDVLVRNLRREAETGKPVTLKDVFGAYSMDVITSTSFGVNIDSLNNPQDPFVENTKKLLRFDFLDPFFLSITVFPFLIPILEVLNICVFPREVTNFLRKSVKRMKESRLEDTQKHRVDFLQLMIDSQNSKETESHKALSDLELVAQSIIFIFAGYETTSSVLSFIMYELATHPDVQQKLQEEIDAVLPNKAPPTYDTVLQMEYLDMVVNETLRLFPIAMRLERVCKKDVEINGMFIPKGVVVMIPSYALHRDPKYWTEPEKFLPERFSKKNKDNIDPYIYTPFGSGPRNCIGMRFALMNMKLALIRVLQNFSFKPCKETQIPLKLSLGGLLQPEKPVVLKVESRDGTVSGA

## CCOC(=O)C1=C(C)NC(C)=C(C(=O)OC)C1c1cccc(Cl)c1Cl (stereo not drawn) [Felodipine]
[1]; oral
  Oral Bioavailability: 15-25%

## NC(=O)N1c2ccccc2C=Cc2ccccc21 [Carbamazepine]
[1]; oral
  Oral Bioavailability: >70%
P450 3A4 [2]
  Fraction Metabolized: >90%

## COC(=O)C1=C(C)NC(C)=C(C(=O)OCCN(C)Cc2ccccc2)C1c1cccc([N+](=O)[O-])c1 (stereo not drawn) [Nicardipine]
[1]; oral
  Oral Bioavailability: 20-30%
P450 3A4 [2]
  Fraction Metabolized: >90%

## CC[C@]1(O)C[C@@H]2CN(CCc3c([nH]c4ccccc34)[C@@](C(=O)OC)(c3cc4c(cc3OC)N(C)[C@H]3[C@@](O)(C(=O)OC)[C@H](OC(C)=O)[C@]5(CC)C=CCN6CC[C@]43[C@@H]65)C2)C1 [Vinblastine]
[1]; oral
  Oral Bioavailability: Poor
P450 3A4 [2]
  Fraction Metabolized: >50%

## CC[C@]1(O)C[C@H]2CN(CCc3c([nH]c4ccccc34)[C@@](C(=O)OC)(c3cc4c(cc3OC)N(C=O)[C@H]3[C@@](O)(C(=O)OC)[C@H](OC(C)=O)[C@]5(CC)C=CCN6CC[C@]43[C@@H]65)C2)C1 [Vincristine]
[1]; oral
  Oral Bioavailability: Poor
P450 3A4 [2]
  Fraction Metabolized: >50%

## Cc1ncc2n1-c1ccc(Cl)cc1C(c1ccccc1F)=NC2 [Midazolam]
[1]; in vivo, po
  Oral Bioavailability: 40-50%
P450 3A4 [2]
  Fraction Metabolized: >90%

## CC[C@H]1OC(=O)[C@H](C)[C@@H](O[C@H]2C[C@@](C)(OC)[C@@H](O)[C@H](C)O2)[C@H](C)[C@@H](O[C@@H]2O[C@H](C)C[C@H](N(C)C)[C@H]2O)[C@](C)(OC)C[C@@H](C)C(=O)[C@H](C)[C@@H](O)[C@]1(C)O [Clarithromycin]
[1]; oral
  Oral Bioavailability: 50-55%
P450 3A4 [2]
  Fraction Metabolized: >70%

## C#C[C@]1(O)C=C[C@H]2[C@@H]3CCC4=CC(=O)CC[C@@H]4[C@H]3CC[C@@]21CC [gestodene]
P450 3A4 [3]
  Kinactivation: 0.4 min⁻¹

## CC(C)(C)NC(=O)[C@@H]1C[C@@H]2CCCC[C@@H]2CN1C[C@@H](O)[C@H](Cc1ccccc1)NC(=O)[C@H](CC(N)=O)NC(=O)c1ccc2ccccc2n1 [Saquinavir]
P450 3A4 [2]
  Fraction Metabolized: >90%

## CC[C@H](C)C(=O)O[C@H]1C[C@H](O)C=C2C=C[C@H](C)[C@H](CC[C@@H](O)C[C@@H](O)CC(=O)O)[C@H]21 [Pravastatin]
[1]; oral
  Oral Bioavailability: 25-10%
P450 3A4 [2]
  Fraction Metabolized: >50%

## CC(C)n1c(/C=C/C(O)CC(O)CC(=O)O)c(-c2ccc(F)cc2)c2ccccc21 (stereo not drawn) [Fluvastatin]
[1]; oral
  Oral Bioavailability: 50-9%
P450 3A4 [2]
  Fraction Metabolized: ˜90%

## CN1C[C@H](C(=O)N[C@]2(C)O[C@@]3(O)[C@@H]4CCCN4C(=O)[C@H](Cc4ccccc4)N3C2=O)C=C2c3cccc4[nH]cc(c34)C[C@H]21 [Ergotamine]
[1]; oral
  Oral Bioavailability: <1%
P450 3A4 [2]
  Fraction Metabolized: >90%

## CN[C@H]1CC[C@@H](c2ccc(Cl)c(Cl)c2)c2ccccc21 [Sertraline]
P450 3A4 [2]
  Fraction Metabolized: >90%

## C[C@]12CC[C@H]3[C@@H](CCC4=CC(=O)CC[C@@]43C)[C@@H]1CC[C@@H]2O [Testosterone]
[1]; oral
  Oral Bioavailability: Poor
P450 3A4 [2]
  Fraction Metabolized: >90%

## CCOC(=O)C1=C(C)NC(C)=C(C(=O)OC)C1c1cccc([N+](=O)[O-])c1 (stereo not drawn) [Nitrendipine]
[1]; oral
  Oral Bioavailability: 16-6%
P450 3A4 [2]
  Fraction Metabolized: >90%

## COC(=O)C1=C(C)NC(C)=C(C(=O)OCC(C)C)C1c1ccccc1[N+](=O)[O-] (stereo not drawn) [Nisoldipine]
[1]; oral
  Oral Bioavailability: ˜5%

## COC(=O)C1=C(C)NC(C)=C(C(=O)OC(C)C)C1c1cccc2nonc12 (stereo not drawn) [Isradipine]
[1]; oral
  Oral Bioavailability: 15-25%
P450 3A4 [2]
  Fraction Metabolized: >90%

## O=c1[nH]c2ccccc2n1C1CCN(CCCC(c2ccc(F)cc2)c2ccc(F)cc2)CC1 [Pimozide]
P450 3A4 [2]
  Fraction Metabolized: >90%

## CCC(C)n1ncn(-c2ccc(N3CCN(c4ccc(OCC5COC(Cn6cncn6)(c6ccc(Cl)cc6Cl)O5)cc4)CC3)cc2)c1=O (stereo not drawn) [Itraconazole]
[1]; oral
  Oral Bioavailability: 44-55%
P450 3A4 [2]
  Fraction Metabolized: >90%

## COc1ccc(CCN2CCC(Nc3nc4ccccc4n3Cc3ccc(F)cc3)CC2)cc1 [Astemizole]
[1]; oral
  Oral Bioavailability: Low
P450 3A4 [2]
  Fraction Metabolized: >90%

## C=CC[C@@H]1/C=C(\C)C[C@H](C)C[C@H](OC)[C@H]2O[C@@](O)(C(=O)C(=O)N3CCCC[C@H]3C(=O)O[C@H](/C(C)=C/[C@@H]3CC[C@@H](O)[C@H](OC)C3)[C@H](C)[C@@H](O)CC1=O)[C@H](C)C[C@@H]2OC [Tacrolimus (FK506), Tacrolimus]
[1]; oral
  Oral Bioavailability: 20-15%
P450 3A4 [2]
  Fraction Metabolized: >90%

## Cc1nnc2n1-c1ccc(Cl)cc1C(c1ccccc1Cl)=NC2 [Triazolam]
[1]; oral
  Oral Bioavailability: 45-70%
P450 3A4 [2]
  Fraction Metabolized: >90%

## CO[C@H]1/C=C/O[C@@]2(C)Oc3c(C)c(O)c4c(c3C2=O)C2=NC3(CCN(CC(C)C)CC3)NC2=C(NC(=O)/C(C)=C\C=C\[C@H](C)[C@H](O)[C@@H](C)[C@@H](O)[C@@H](C)[C@H](OC(C)=O)[C@@H]1C)C4=O [Rifabutin]
[1]; oral
  Oral Bioavailability: 20-12%
P450 3A4 [2]
  Fraction Metabolized: >90%

## CC(=CCOc1c2ccoc2cc2oc(=O)ccc12)CCC(O)C(C)(C)O (stereo not drawn) [6′,7′-dihydroxybergamottin]
P450 3A4 [4]
  Kinactivation (maximal rate constant of inactivation): 0.16 min⁻¹

## CC[C@H]1OC(=O)[C@H](C)[C@@H](O[C@H]2C[C@@](C)(OC)[C@@H](O)[C@H](C)O2)[C@H](C)[C@@H](O[C@@H]2O[C@H](C)C[C@H](N(C)C)[C@H]2O)[C@](C)(O)C[C@@H](C)C(=O)[C@H](C)[C@@H](O)[C@]1(C)O [Erythromycin]
[1]; oral
  Oral Bioavailability: 30-65%

## CC[C@H]1OC(=O)[C@H](C)[C@@H](O[C@H]2C[C@@](C)(OC)[C@@H](O)[C@H](C)O2)[C@H](C)[C@@H](O[C@@H]2O[C@H](C)C[C@H](N(C)C)[C@H]2O)[C@](C)(O)C[C@@H](C)CN(C)[C@H](C)[C@@H](O)[C@]1(C)O [Azithromycin]
[1]; oral
  Oral Bioavailability: 35-45%

## COCCOC(=O)C1=C(C)NC(C)=C(C(=O)OC(C)C)C1c1cccc([N+](=O)[O-])c1 (stereo not drawn) [Nimodipine]
[1]; oral
  Oral Bioavailability: 15-10%

## COc1cc(N)c(Cl)cc1C(=O)NC1CCN(CCCOc2ccc(F)cc2)CC1OC (stereo not drawn) [Cisapride]
[1]; oral
  Oral Bioavailability: 35-40%

## COc1cc([C@@H]2c3cc4c(cc3[C@@H](O[C@@H]3O[C@@H]5CO[C@@H](C)O[C@H]5[C@H](O)[C@H]3O)[C@H]3COC(=O)[C@H]23)OCO4)cc(OC)c1O [Etoposide]
[1]; oral
  Oral Bioavailability: 35-70%

## CO[C@H]1C[C@@H]2CC[C@@H](C)[C@@](O)(O2)C(=O)C(=O)N2CCCC[C@H]2C(=O)O[C@H]([C@H](C)C[C@@H]2CC[C@@H](O)[C@H](OC)C2)CC(=O)[C@H](C)/C=C(\C)[C@@H](O)[C@@H](OC)C(=O)[C@H](C)C[C@H](C)/C=C/C=C/C=C/1C [Sirolimus(rapamycin), Sirolimus]
[1]; oral
  Oral Bioavailability: 20-10%
P450 3A4 [2]
  Fraction Metabolized: >90%

Source: US6509371B1, “Compositions containing Bergamottin for increasing the oral bioavailability of pharmaceutical agents” (Warner-Lambert Company, priority 1997, dated 2003)
